Reference: ChEMBL document CHEMBL3751787, “Novel chromenedione derivatives displaying inhibition of protein tyrosine phosphatase 1B (PTP1B) from Flemingia philippinensis” (Bioorg Med Chem Lett, 2016)

Experiments:
[1] = biological target: T1, Tyrosine-protein phosphatase non-receptor type 1 (Homo sapiens, UniProt P18031); experiment: Inhibition of human recombinant PTP1B using p-nitrophenyl phosphate as substrate by spectrophotometric analysis
T1 sequence (P18031 whole entry): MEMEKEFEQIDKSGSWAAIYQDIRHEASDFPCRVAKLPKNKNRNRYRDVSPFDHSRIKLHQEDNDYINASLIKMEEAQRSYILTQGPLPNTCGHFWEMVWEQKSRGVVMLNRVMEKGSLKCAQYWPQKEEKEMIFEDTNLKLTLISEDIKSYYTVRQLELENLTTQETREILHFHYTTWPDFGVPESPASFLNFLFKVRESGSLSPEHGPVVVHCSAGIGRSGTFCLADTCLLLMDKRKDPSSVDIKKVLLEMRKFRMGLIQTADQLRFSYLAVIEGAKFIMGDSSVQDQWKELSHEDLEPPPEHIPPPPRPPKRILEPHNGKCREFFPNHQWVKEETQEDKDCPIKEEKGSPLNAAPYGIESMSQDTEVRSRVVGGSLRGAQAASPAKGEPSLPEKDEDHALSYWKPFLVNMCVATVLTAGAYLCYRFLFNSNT

[2] = biological target: T1, Tyrosine-protein phosphatase non-receptor type 1; experiment: Non-competitive inhibition of human recombinant PTP1B using p-nitrophenyl phosphate as substrate by spectrophotometry based Lineweaver-Burk plot
[3] = biological target: T1, Tyrosine-protein phosphatase non-receptor type 1; experiment: Competitive inhibition of human recombinant PTP1B using p-nitrophenyl phosphate as substrate by spectrophotometry based Lineweaver-Burk plot

Row | Compound | IC50 [1] | Ki [2] | Ki [3]
1 | COc1ccc(CCC(=O)C2=C(O)C(CC=C(C)C)=C3OC(C)(C)C=CC3(CC=C(C)C)C2=O)cc1O (stereo unspecified) | 29.4 µM |  | 17.6 µM
2 | COc1ccc(CC/C(O)=C2\C(=O)C(CC=C(C)C)=C3OC(C)(C)C=CC3(CC=C(C)C)C2=O)cc1O (stereo unspecified) | 20.2 µM |  | 12.3 µM
3 | COc1cc(-c2coc3c(CC=C(C)C)c(O)c(CC=C(C)C)c(O)c3c2=O)ccc1O [FLEMINGSIN] | 17.4 µM | 19.2 µM | 
4 | CC(C)=CCc1c2c(c3occ(-c4ccc(O)cc4)c(=O)c3c1O)C=CC(C)(C)O2 [OSAJIN] | 23.6 µM | 29.9 µM | 

Molecules with a lower IC50 [1], results first:

Row | IC50 [1] | Ki [2] | Ki [3] | Compound
5 | 2.4 µM | 2.5 µM |  | CC(C)=CCc1c(O)c(CC=C(C)C)c2occ(-c3ccc(O)c(O)c3)c(=O)c2c1O
6 | 6.5 µM |  | 3.4 µM | COc1ccc(CCC(=O)C2=C(O)C(CC=C(C)C)=C3OC(C)(C)C=CC3(CC=C(C)C)C2=O)cc1 (stereo unspecified)
7 | 9.3 µM | 9.6 µM |  | CC(C)=CCc1c(O)c(CC=C(C)C)c2occ(-c3ccc(O)cc3)c(=O)c2c1O
8 | 3.6 µM | 4.4 µM |  | CC(C)=CCc1c2c(c(O)c3c(=O)c(-c4ccc(O)c(O)c4)coc13)C=CC(C)(C)O2 [AURICULASIN]
